Marks after values point to notes of the source that are not given here.
Columns and labels:
pituitary receptors = target: T1, pituitary receptors (Homo sapiens, UniProt Q02643); conditions: biological activity on the pituitary; cited from earlier work
T1 construct: host or cells: pituitary
T1 sequence (Q02643 23-423): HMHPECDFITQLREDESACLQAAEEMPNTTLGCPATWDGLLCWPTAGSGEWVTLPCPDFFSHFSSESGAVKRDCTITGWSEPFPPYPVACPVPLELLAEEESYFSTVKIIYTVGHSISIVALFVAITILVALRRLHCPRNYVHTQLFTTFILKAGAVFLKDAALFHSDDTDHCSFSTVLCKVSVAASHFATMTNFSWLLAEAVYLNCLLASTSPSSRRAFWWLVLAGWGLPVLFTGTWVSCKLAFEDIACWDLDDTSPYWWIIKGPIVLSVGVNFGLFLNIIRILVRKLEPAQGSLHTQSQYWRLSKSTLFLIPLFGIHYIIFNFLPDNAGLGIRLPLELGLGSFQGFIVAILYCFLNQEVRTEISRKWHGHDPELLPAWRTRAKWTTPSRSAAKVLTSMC

[1] = tested on: PC-3 human hormone-independent prostate cancer; assay: PC-3 human prostate cancer xenografts in nude mice, Experiment 1; type: in vivo; conditions: 10 μg/day s.c., daily for 35 days; means±S.E.
Method: (§1) Male nude mice were implanted s.c. with 3 mm^3 pieces of PC-3 human hormone-independent prostate cancer tissue on both flanks. When tumors reached a volume of approx. 50 mm^3, the mice were divided into 4 experimental groups with 8 to 10 animals in each group and received single daily injections for 35 days as follows: 1. Control (vehicle solution); 2. JMR-132 (10 μg/day s.c.); 3. Peptide 1109 (10 μg/day s.c.); 4. Peptide 11111 (10 μg/day s.c.); Tumor volumes were measured once a week. The experiment was ended on day 35 by sacrificing the mice under Isoflurane anesthesia. Resulting tumors were cleaned, weighed, and snap-frozen until further analyses. Statistical analyses of the measurement results were done by two-tailed t-test, p<0.05 being considered significant. Data are presented as the means±S.E.

[2] = tested on: H-460 human non-small cell lung cancer; assay: H-460 human non-SCLC xenografts in nude mice, Experiment 1; type: in vivo; conditions: 10 μg/day s.c., 28 days; means±S.E.
Method: Male nude mice were implanted s.c. with 3 mm^3 pieces of H-460 human non-SCLC tumor tissue on both flanks. When tumors had grown to a mean volume of approximately 90 mm^3, the mice were randomly assigned into 4 experimental groups with 10 animals in each group and received single daily injections for 28 days as follows: 1. Control (vehicle solution); 2. JMR-132 (10 μg/day s.c.); 3. Peptide 1109 (10 μg/day s.c.); 4. Peptide 11111 (10 μg/day s.c.). Tumor volumes were measured once a week. The experiment was ended on day 28 by sacrificing the mice under Isoflurane anesthesia. Resulting tumors were cleaned, weighed, and snap-frozen until further analyses. Statistical analyses of the measurement results were done by two-tailed t-test, p<0.05 being considered significant. Data are presented as the means±S.E.

[3] = tested on: PC-3 human hormone-independent prostate cancer; assay: PC-3 human prostate cancer xenografts in nude mice, Experiment 3; type: in vivo; conditions: 2 μg/day s.c., 28 days
Method: Male nude mice were implanted s.c. with 3 mm^3 pieces of PC-3 human hormone-independent prostate cancer tissue on both flanks. When tumors reached a volume of approximately 50 mm^3, the mice were divided into 12 experimental groups with 8 to 10 animals in each group and received single daily injections for 28 days as follows: 1. Control (vehicle solution); 2. JMR-132 (10 μg/day s.c.); 3. Peptide 11113 (2 μg/day s.c.); 4. Peptide 11119 (2 μg/day s.c.); 5. Peptide 11209 (2 μg/day s.c.); 6. Peptide 11313 (2 μg/day s.c.); 7. Peptide 11408 (2 μg/day s.c.); 8. Peptide 11435 (2 μg/day s.c.); 9. Peptide 11457 (2 μg/day s.c.); 10. Peptide 11459 (2 μg/day s.c.); 11. Peptide 11469 (2 μg/day s.c.); 12. Peptide 11491 (2 μg/day s.c.).
Tumor volumes were measured once a week. The experiment was ended on day 28 by sacrificing the mice under Isoflurane anesthesia. Resulting tumors were cleaned, weighed, and snap-frozen until further analyses. Statistical analyses of the measurement results were done by two-tailed t-test, p<0.05 being considered significant.

[4] = tested on: H-460 human non-small cell lung cancer; assay: H-460 human non-SCLC xenografts in nude mice, Experiment 2; type: in vivo; conditions: 5 μg/day s.c.; for Tumor growth after 4 weeks (%): means±S.E.; for Inhibition (%): after 4 weeks
Method: Male nude mice were implanted s.c. with 3 mm^3 pieces of H-460 human non-SCLC tumor tissue on both flanks. When tumors had grown to a mean volume of approximately 90 mm^3, the mice were randomly assigned into 12 experimental groups with 8 to 10 animals in each group and received single daily injections for 28 days as follows: 1. Control (vehicle solution); 2. JMR-132 (10 μg/day s.c.); 3. Peptide 11109 (5 μg/day s.c.); 4. Peptide 11113 (5 μg/day s.c.); 5. Peptide 11119 (5 μg/day s.c.); 6. Peptide 11209 (5 μg/day s.c.); 7. Peptide 11313 (5 μg/day s.c.); 8. Peptide 11408 (5 μg/day s.c.); 9. Peptide 11435 (5 μg/day s.c.); 10. Peptide 11459 (5 μg/day s.c.); 11. Peptide 11469 (5 μg/day s.c.); 12. Peptide 11491 (5 μg/day s.c.). Tumor volumes were measured once a week. The experiment was ended on day 28 by sacrificing the mice under Isoflurane anesthesia. Resulting tumors were cleaned, weighed, and snap-frozen until further analyses. Statistical analyses of the measurement results were done by two-tailed t-test, p<0.05 being considered significant. Data are presented as the means±S.E.

[5] = tested on: Human ovarian cancer SKOV3 cells; assay: SKOV3 ovarian cancer xenografts in nude mice; type: in vivo; conditions: 5 μg/day s.c.
Description: Human ovarian cancer SKOV3 cells growing exponentially were implanted info five female nude mice by subcutaneous (s.c.) injection of 10^7 cells in both flanks. Tumors That resulted after approximately 4 weeks in donor animals were then aseptically dissected and mechanically minced. Three mm^3 pieces of tumor tissue were transplanted subcutaneously into experimental animals with a trocar needle. When tumors reached an appropriate size (approximately 50 mm^3), mice were randomly divided into […]. The first was the control group, the second group was treated with daily s.c. injections of 5 μg P-11313, the third group was treated with daily s.c. injections of 5 μg P-11604, the fourth group was treated with daily s.c. injections of 5 μg P-11610. Tumor volume (length×width×height×0.5236) was measured every week and mean tumor volumes of each group were compared by Student's t-test. The study lasted 49 days. One week after end of treatment, mice were killed under anesthesia, tumors were snap frozen and stored at −70° C.

[6] = tested on: rat anterior pituitary adenylate cyclase; conditions: cited from earlier work
GH secretion = conditions: cited from earlier work
[7] = tested on: PC-3 human hormone-independent prostate cancer; assay: PC-3 human prostate cancer xenografts in nude mice, Experiment 2; type: in vivo; conditions: for Inhibition (%): tumor growth after 2 weeks
Method: as §1
Experiment 2 was similar to Experiment 1. Experiment 2 was started when PC-3 tumors had grown to approximately 50 mm^3 in volume. At this time, the animals were divided into 5 experimental groups with 8 animals in each group, and received single daily injections for 14 days as follows: 1. Control (vehicle solution); 2. JMR-132 (10 μg/day s.c.); 3. Peptide 1109 (5 μg/day s.c.); 4. Peptide 11109 (5 μg/day s.c.); 5. Peptide 11109 (2 μg/day s.c.). Further details of Experiment 2 are the same as for Experiment 1

[8] = tested on: Panc-1 human pancreatic cancer; assay: Panc-1 human pancreatic cancer xenografts in nude mice; type: in vivo; conditions: 10 μg/day s.c. for 36 days
Method: Panc-1 cancers were transplanted s.c. into both flank areas of 60 female nude mice, and allowed to grow for 105 days before starting the treatment with GH-RH antagonists. The mice were randomly assigned into 3 experimental groups with 8 animals in each group and received single daily injections for 36 days as follows: 1. Control (vehicle solution); 2. JMR-132 (10 μg/day s.c.); 3. Peptide 11457 (10 μg/day s.c.). Tumor volumes were measured once a week. The experiment was ended on day 82 by sacrificing the mice under Isoflurane anesthesia. Resulting tumors were cleaned, weighed, and snap-frozen until further analyses. Statistical analyses of the measurement results were done by two-tailed t-test, p<0.05 being considered significant. Data are presented as the means±S.E.

Substance: Tyr-Ala-Asp-Ala-lle^5-Phe-Thr-Asn-Ser-Tyr^10-Arg-Lys-Val-Leu-Gly^15-Gln-Leu-Ser-Ala-Arg^20-Lys-Leu-Leu-Gln-Asp^25-Ile-Met-Ser-Arg^29-NH2 [GH-RH(1-29)]
- Potency relative to native GH-RH (pituitary receptors): ≥ 50%

Substance: [(Ac-Ada)^0-Tyr^1, D-Arg^2, Cpa^6, Ala^8, Har^9, Tyr(Me)^10, His^11, Abu^15, His^20, Nle^27, D-Arg^28, Har^29]hGH-RH(1-29)NH2 [Peptide 11111]
- Tumor growth after 5 weeks (%) [1]: 1215 ± 243%
- Tumor growth after 4 weeks (%) [2]: 2005 ± 541%

Substance: [(Ac-Amc)^0-Tyr^1, D-Arg^2, Cpa^6, Ala^8, Har^9, Tyr(Me)^10, His^11, Orn^12, Abu^15, His^20, Nle^27, D-Arg^28, Har^29-Agm^30]hGH-RH(1-29) [Peptide 11313]
- Tumor growth inhibition after 4 weeks (%) [3]: 78.20%
- Tumor growth after 4 weeks (%) ([4]; 28 days): 3091 ± 1215%
- Inhibition (%) [4]: 60.84%
- TU growth (%) ([5]; day 0 (baseline)): 100%
- TU growth (%) ([5]; day 7): 147.84%
- TU inhibition (%) ([5]; day 7): 31.04%
- TU growth (%) ([5]; day 14): 140%
- TU inhibition (%) ([5]; day 14): 50.04%
- TU growth (%) ([5]; day 21): 196.6%
- TU inhibition (%) ([5]; day 21): 63.83%
- TU growth (%) ([5]; day 28): 249.65%
- TU inhibition (%) ([5]; day 28): 70.35%
- TU growth (%) ([5]; day 35): 201.5%
- TU inhibition (%) ([5]; day 35): 77.43%
- TU growth (%) ([5]; day 42): 274.05%
- TU inhibition (%) ([5]; day 42): 77.83%
- TU growth (%) ([5]; day 49): 328.63%
- TU inhibition (%) ([5]; day 49): 74.16%

Substance: [Ac-Tyr^1,D-Arg^2]hGH-RH(1-29)NH2 [standard antagonist]
- Effect on activation of adenylate cyclase by hGH-RH(1-29)NH2 [6]: prevent the activation of rat anterior pituitary adenylate cyclase
- Effect on GH levels (GH secretion; a patient with acromegaly): reduced GH levels
- Effect on nocturnal GH secretion (GH secretion; normal subjects, 400 μg/kg): eliminated nocturnal GH secretion

Substance: [Dca^0-Tyr^1, D-Arg^2, Cpa^6, Ala^8, Har^9, Tyr(Me)^10, His^11, Abu^15, His^20, Nle^27, D-Arg^28, Har^29]hGH-RH(1-29)NH2 [Peptide 11109]
- Tumor growth after 2 weeks (%) ([7]; 2 μg/day s.c., 14 days): 318%
- Tumor growth after 2 weeks (%) ([7]; 5 μg/day s.c., 14 days): 217%
- Inhibition of PC-3 tumor growth compared with reference peptide JMR-132 ([7]; Peptide 1109 5 μg/day, Peptide 11109 5 and 2 μg/day, JMR-132 10 μg/day, 14 days): inhibited the growth of PC-3 tumors more potently than reference peptide JMR-132
- Inhibition (%) ([7]; 2 μg/day s.c.): 55.55%
- Inhibition (%) ([7]; 5 μg/day s.c.): 69.68%
- Effect on the growth of H-460 lung cancers in vivo ([4]; 28 days): had no effect
- Tumor growth after 4 weeks (%) ([4]; 28 days): 7890 ± 4127%
- Inhibition (%) [4]: 0.05%

Substance: [PhAc^0-Tyr^1, D-Arg^2, Cpa^6, Ala^8, Har^9, Tyr(Me)^10, His^11, Orn^12, Abu^15, His^20, Orn^21, Nle^27, D-Arg^28, Har^29-Ada^30]hGH-RH(1-29)NH2 [Peptide 11457]
- Tumor growth inhibition after 4 weeks (%) [3]: 85.98%
- Tumor weights ([8]; end of experiment day 82): 76 ± 166 mg
- Tumor growth from day 1 to day 82 (%) ([8]; means±S.E.): 740 ± 1220 %
- Tumor volume on day 82 (mm^3) ([8]; means±S.E.): 262 ± 103* mm^3
- Effect on the growth of Panc-1 human pancreatic cancers ([8]; observed for at least 82 days): powerfully inhibited the growth of Panc-1 human pancreatic cancers
